In patent US20190330224A1, “ACC INHIBITORS AND USES THEREOF” (Gilead Apollo, LLC, priority 2015, published 2019):
pIC50: −log10 of the molar value. Values after ≈ are worked out from the molar mass of the structure shown.

Legend:
Human ACC2 = Human ACC2 (Homo sapiens, UniProt O00763); assay: In vitro ACC2 inhibition assay (ADP-Glo), human ACC2; assay type: biochemical; conditions: 5 nM ACC2, 20 μM ATP, 20 μM acetyl-CoA
C. albicans ATCC 90028 = assay: Anti-Fungal Activity Assay (broth microtiter MIC), C. albicans; assay type: cell-based, Candida albicans; conditions: Candida albicans, ATCC90028, 48 h, 3 replicates; MIC recorded at 48 h; read-out: MIC C. albicans ATCC 90028
In short: (§1)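 Susceptibility testing used direct colony suspensions in RPMI 1640+MOPS from Sabouraud dextrose agar grown at 35° C. Endpoints were visual MICs at 48 h under CLSI M27-A3 microtiter conditions, plus a 24 h reading for soraphen.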

C. krusei ATCC 6258 = assay: Anti-Fungal Activity Assay (broth microtiter MIC), C. krusei; assay type: cell-based, Candida krusei; conditions: Pichia kudriavzevii, ATCC6258, 48 h, 3 replicates; MIC recorded at 48 h; read-out: MIC C. krusei ATCC 6258
In short: as §1

[1] = test system: C. parapsilosis ATCC 22019; assay: Anti-Fungal Activity Assay (broth microtiter MIC), C. parapsilosis; assay type: cell-based, Candida parapsilosis; conditions: Lodderomyces parapsilosis, ATCC22019, 48 h, 3 replicates; MIC recorded at 48 h; read-out: MIC C. parapsilosis ATCC 22019
In short: as §1

Fungal ACC2 = Fungal ACC2 (UniProt Q00955); conditions: read-out: Fungal ACC2 (IC50, in vitro ACC2 inhibition)
Sequence of Fungal ACC2 (Q00955 whole entry): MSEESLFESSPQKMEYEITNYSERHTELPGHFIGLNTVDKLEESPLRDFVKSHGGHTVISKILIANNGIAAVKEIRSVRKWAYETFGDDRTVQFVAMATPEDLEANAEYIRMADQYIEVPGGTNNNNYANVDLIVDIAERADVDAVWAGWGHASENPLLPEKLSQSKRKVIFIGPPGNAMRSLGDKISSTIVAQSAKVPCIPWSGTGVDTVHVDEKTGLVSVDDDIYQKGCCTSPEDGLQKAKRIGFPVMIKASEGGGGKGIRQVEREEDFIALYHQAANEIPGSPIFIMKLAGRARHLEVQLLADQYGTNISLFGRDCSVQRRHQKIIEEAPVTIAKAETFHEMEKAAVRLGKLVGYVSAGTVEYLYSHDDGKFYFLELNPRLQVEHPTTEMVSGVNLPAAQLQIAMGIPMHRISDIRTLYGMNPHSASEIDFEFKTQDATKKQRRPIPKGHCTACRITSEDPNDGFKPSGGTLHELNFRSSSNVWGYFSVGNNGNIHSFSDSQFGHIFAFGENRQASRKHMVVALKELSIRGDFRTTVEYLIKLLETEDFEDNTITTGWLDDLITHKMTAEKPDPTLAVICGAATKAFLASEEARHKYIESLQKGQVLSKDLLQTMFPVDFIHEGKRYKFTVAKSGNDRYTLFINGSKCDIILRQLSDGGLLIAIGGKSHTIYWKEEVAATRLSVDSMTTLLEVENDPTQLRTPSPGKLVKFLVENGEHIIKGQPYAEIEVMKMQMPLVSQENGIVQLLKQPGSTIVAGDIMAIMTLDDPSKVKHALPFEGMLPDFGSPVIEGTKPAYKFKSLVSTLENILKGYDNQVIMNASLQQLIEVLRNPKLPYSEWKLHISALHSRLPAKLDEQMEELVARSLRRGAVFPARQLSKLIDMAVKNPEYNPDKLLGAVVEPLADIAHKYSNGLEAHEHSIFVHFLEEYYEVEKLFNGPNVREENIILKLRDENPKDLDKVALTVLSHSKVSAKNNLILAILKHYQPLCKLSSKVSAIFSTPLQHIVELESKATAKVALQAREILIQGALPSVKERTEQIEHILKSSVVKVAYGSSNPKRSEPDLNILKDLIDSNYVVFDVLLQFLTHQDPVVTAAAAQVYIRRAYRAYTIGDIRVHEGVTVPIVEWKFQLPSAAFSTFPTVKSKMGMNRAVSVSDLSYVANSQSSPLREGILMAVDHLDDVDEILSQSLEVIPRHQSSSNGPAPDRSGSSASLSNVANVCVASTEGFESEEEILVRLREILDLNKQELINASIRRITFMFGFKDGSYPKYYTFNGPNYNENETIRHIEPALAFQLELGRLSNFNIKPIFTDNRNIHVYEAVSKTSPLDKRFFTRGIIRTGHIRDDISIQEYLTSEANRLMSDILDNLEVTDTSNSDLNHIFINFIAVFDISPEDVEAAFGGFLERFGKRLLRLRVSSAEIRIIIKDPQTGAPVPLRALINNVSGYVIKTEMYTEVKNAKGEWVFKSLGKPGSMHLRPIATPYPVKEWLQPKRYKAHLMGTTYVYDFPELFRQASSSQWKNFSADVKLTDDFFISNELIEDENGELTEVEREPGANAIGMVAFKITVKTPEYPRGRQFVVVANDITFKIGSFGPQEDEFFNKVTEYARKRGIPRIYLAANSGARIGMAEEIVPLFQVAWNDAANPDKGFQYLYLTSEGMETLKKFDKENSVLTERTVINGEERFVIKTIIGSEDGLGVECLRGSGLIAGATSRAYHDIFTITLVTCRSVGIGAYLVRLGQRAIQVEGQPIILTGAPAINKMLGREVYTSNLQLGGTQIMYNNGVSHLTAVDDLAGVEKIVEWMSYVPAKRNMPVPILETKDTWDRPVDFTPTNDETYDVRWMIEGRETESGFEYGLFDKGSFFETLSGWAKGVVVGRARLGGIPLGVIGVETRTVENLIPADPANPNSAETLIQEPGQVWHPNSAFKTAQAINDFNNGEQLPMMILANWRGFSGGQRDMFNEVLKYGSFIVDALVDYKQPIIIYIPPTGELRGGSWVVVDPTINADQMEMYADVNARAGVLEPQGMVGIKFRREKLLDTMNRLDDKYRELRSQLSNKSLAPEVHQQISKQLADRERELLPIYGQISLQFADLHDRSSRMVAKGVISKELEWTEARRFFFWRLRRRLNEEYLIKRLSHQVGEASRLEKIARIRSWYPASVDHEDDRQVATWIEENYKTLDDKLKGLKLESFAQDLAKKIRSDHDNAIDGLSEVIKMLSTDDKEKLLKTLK

Sequence of Human ACC2 (O00763 whole entry): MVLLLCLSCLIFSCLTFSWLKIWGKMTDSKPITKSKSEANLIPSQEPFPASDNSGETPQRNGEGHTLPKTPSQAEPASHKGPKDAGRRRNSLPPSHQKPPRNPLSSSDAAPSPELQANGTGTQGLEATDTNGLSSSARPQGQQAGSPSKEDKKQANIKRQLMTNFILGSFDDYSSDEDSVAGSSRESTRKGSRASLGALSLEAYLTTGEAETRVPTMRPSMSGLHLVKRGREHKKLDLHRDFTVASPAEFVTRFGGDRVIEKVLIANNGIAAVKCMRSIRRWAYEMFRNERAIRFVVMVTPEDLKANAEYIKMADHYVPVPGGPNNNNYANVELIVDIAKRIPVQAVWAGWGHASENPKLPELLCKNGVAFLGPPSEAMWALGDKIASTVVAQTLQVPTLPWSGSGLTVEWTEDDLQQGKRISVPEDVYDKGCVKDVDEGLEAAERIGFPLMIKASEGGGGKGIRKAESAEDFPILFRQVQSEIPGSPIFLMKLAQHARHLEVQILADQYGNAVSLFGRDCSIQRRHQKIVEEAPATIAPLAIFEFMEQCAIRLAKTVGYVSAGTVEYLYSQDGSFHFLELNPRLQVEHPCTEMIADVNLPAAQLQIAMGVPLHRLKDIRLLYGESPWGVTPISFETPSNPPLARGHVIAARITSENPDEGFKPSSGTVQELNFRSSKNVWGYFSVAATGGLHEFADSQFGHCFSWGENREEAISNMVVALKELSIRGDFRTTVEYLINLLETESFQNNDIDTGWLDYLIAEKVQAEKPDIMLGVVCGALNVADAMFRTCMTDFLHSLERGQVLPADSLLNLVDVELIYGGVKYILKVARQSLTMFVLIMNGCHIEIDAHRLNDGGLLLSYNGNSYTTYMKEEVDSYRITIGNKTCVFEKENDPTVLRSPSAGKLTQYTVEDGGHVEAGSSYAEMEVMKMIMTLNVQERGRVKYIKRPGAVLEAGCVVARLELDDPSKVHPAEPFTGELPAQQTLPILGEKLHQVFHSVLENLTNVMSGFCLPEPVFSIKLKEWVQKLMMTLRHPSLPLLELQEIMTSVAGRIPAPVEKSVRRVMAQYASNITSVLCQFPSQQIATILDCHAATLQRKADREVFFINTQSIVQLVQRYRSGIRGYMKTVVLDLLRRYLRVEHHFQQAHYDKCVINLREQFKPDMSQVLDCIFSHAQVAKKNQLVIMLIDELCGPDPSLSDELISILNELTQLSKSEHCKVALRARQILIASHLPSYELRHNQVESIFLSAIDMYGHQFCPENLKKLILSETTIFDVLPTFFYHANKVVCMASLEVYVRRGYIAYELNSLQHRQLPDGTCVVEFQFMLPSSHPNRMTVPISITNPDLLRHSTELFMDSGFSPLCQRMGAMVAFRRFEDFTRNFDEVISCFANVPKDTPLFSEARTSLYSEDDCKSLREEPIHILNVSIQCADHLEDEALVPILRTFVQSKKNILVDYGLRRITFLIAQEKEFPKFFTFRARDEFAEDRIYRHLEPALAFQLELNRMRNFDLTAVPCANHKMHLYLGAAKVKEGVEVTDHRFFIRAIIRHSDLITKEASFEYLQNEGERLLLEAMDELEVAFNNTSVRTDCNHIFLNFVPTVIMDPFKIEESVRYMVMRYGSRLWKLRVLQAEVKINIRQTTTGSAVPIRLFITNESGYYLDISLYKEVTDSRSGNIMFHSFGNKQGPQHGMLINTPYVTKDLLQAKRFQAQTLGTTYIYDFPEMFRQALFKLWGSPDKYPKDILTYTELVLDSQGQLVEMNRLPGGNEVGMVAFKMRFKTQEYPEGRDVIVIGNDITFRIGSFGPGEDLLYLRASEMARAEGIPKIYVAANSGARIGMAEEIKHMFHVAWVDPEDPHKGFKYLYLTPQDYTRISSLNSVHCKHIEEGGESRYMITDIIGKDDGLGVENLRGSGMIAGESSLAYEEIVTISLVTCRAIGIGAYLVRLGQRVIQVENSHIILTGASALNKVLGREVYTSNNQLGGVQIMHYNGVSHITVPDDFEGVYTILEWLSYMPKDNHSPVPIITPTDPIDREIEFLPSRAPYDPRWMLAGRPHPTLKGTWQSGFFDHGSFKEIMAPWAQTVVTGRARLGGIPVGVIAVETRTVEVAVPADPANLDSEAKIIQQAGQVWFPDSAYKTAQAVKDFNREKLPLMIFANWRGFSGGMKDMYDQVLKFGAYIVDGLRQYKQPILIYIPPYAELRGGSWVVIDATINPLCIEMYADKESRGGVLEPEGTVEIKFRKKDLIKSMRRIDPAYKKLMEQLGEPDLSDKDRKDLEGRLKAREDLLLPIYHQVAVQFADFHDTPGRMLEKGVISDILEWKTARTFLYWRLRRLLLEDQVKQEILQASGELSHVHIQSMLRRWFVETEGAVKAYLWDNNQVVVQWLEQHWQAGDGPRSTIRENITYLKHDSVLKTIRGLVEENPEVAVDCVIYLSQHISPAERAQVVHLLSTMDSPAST

SMILES	pIC50 (Human ACC2)	MIC (C. albicans ATCC 90028) [µg/mL]	MIC (C. krusei ATCC 6258) [µg/mL]	MIC [1] [µg/mL]	pIC50 (Fungal ACC2)
COCCO[C@@H](Cn1c(=O)n([C@H]2CCN(C)C2=O)c(=O)c2c(C)c(-n3nccn3)sc21)c1cc(F)ccc1O [Compound I-157, 1-((R)-2-(5-fluoro-2-hydroxyphenyl)-2-(2-methoxyethoxy)ethyl)-5-methyl-3-((S)-1-methyl-2-oxopyrrolidin-3-yl)-6-(2H-1,2,3-triazol-2-yl)thieno[2,3-d]pyrimidine-2,4(1H,3H)-dione]	6.00 to 7.00	2.1 to 4 (≈ 3.76 to 7.16 µM)	2.1 to 4 (≈ 3.76 to 7.16 µM)	2.1 to 4 (≈ 3.76 to 7.16 µM)	8.00 to 8.70
COCCO[C@@H](Cn1c(=O)n(C2CCCNC2=O)c(=O)c2c(C)c(-n3nccn3)sc21)c1cc(F)ccc1OC (stereo partly drawn) [Compound I-13, 1-((R)-2-(5-fluoro-2-methoxyphenyl)-2-(2-methoxy-ethoxy)ethyl)-5-methyl-3-(2-oxopiperidin-3-yl)-6-(2H-1,2,3-triazol-2-yl)thieno[2,3-d]pyrimidine-2,4(1H,3H)-dione]	7.00 to 8.00	2.1 to 4 (≈ 3.67 to 6.99 µM)	2.1 to 4 (≈ 3.67 to 6.99 µM)	2.1 to 4 (≈ 3.67 to 6.99 µM)	8.70 to 9.15
COc1ccc(F)cc1[C@H](Cn1c(=O)n([C@@]2(C)CC(=O)N(C)C2)c(=O)c2c(C)c(-n3nccn3)sc21)OCCO [Compound I-123, 3-((S)-1,3-dimethyl-5-oxopyrrolidin-3-yl)-1-((R)-2-(5-fluoro-2-methoxyphenyl)-2-(2-hydroxyethoxy)ethyl)-5-methyl-6-(2H-1,2,3-triazol-2-yl)thieno[2,3-d]pyrimidine-2,4(1H,3H)-dione]	7.00 to 8.00	2.1 to 4 (≈ 3.67 to 6.99 µM)	2.1 to 4 (≈ 3.67 to 6.99 µM)	2.1 to 4 (≈ 3.67 to 6.99 µM)	8.70 to 9.15
COc1ccc(F)cc1[C@H](Cn1c(=O)n([C@H]2CCNC2=O)c(=O)c2c(C)c(-n3nccn3)sc21)O[C@H]1CC[C@@H](O)CC1 [Compound I-187, 1-((R)-2-(5-fluoro-2-methoxyphenyl)-2-(((1 s, 4S)-4-hydroxycyclohexyl)oxy)ethyl)-5-methyl-3-((S)-2-oxopyrrolidin-3-yl)-6-(2H-1,2,3-triazol-2-yl)thieno[2,3-d]pyrimidine-2,4(1H,3H)-dione]	8.00 to 8.70	2.1 to 4 (≈ 3.51 to 6.68 µM)	2.1 to 4 (≈ 3.51 to 6.68 µM)	2.1 to 4 (≈ 3.51 to 6.68 µM)	8.70 to 9.15
COCCO[C@@H](Cn1c(=O)n(CCN2CCCCC2=O)c(=O)c2c(C)c(-n3nccn3)sc21)c1cc(F)ccc1OC [Compound I-98, (R)-1-(2-(S-fluoro-2-methoxyphenyl)-2-(2-methoxy-ethoxy)ethyl)-5-methyl-3-(2-(2-oxopiperidin-1-yl)ethyl)-6-(2H-1,2,3-triazol-2-yl)thieno[2,3-d]pyrimidine-2,4(1H3H)-dione]	7.00 to 8.00	2.1 to 4 (≈ 3.5 to 6.66 µM)	2.1 to 4 (≈ 3.5 to 6.66 µM)	2.1 to 4 (≈ 3.5 to 6.66 µM)	8.00 to 8.70
COc1ccc(F)cc1[C@H](Cn1c(=O)n([C@]2(C)CCCN(C)C2=O)c(=O)c2c(C)c(-n3nccn3)sc21)OCCO [Compound I-129, 3-((R)-1,3-dimethyl-2-oxopiperidin-3-yl)-1-((R)-2-(5-fluoro-2-methoxyphenyl)-2-(2-hydroxyethoxy)ethyl)-5-methyl-6-(2H-1,2,3-triazol-2-yl)thieno[2,3-d]pyrimidine-2,4(1H,3H)-dione]	7.00 to 8.00	2.1 to 4 (≈ 3.58 to 6.82 µM)	2.1 to 4 (≈ 3.58 to 6.82 µM)	2.1 to 4 (≈ 3.58 to 6.82 µM)	8.70 to 9.15
COc1ccc(F)cc1[C@H](Cn1c(=O)n([C@H]2CCN(C)C2=O)c(=O)c2c(C)c(-n3nccn3)sc21)OCCC(=O)O [Compound I-176, 3-((R)-1-(5-fluoro-2-methoxyphenyl)-2-(5-methyl-3-((S)-1-methyl-2-oxopyrrolidin-3-yl)-2,4-dioxo-6-(2H-1,2,3-triazol-2-yl)-3,4-dihydrothieno[2,3-d]pyrimidin-1 (2H)-yl)ethoxy)propanoic acid]	7.00 to 8.00	2.1 to 4 (≈ 3.58 to 6.82 µM)	2.1 to 4 (≈ 3.58 to 6.82 µM)	2.1 to 4 (≈ 3.58 to 6.82 µM)	8.00 to 8.70
COc1ccc(F)cc1[C@H](Cn1c(=O)n([C@@H]2CCNC2=O)c(=O)c2c(C)c(-c3ncco3)sc21)OCCO [Compound I-69, 1-((R)-2-(5-fluoro-2-methoxyphenyl)-2-(2-hydroxy-ethoxy)ethyl)-5-methyl-6-(oxazol-2-yl)-3-((R)-2-oxopyrrolidin-3-yl)thieno[2,3-d]pyrimidine-2,4(1H,3H)-dione]	7.00 to 8.00	2.1 to 4 (≈ 3.86 to 7.35 µM)	2.1 to 4 (≈ 3.86 to 7.35 µM)	2.1 to 4 (≈ 3.86 to 7.35 µM)	8.00 to 8.70
COc1ccc(F)cc1[C@H](Cn1c(=O)n([C@]2(C)CCC(=O)N(C)C2)c(=O)c2c(C)c(-n3nccn3)sc21)OCCO [Compound I-142]	8.00 to 8.70	2.1 to 4 (≈ 3.58 to 6.82 µM)	2.1 to 4 (≈ 3.58 to 6.82 µM)	2.1 to 4 (≈ 3.58 to 6.82 µM)	8.70 to 9.15
COc1ccccc1C(=O)Cn1c(=O)n([C@@H]2CCN(C)C2=O)c(=O)c2c(C)c(-n3nccn3)sc21 [Compound I-167, (R)-1-(2-(2-methoxyphenyl)-2-oxoethyl)-5-methyl-3-(1-methyl-2-oxopyrrolidin-3-yl)-6-(2H-1,2,3-triazol-2-yl)thieno[2,3-d]pyrimidine-2,4(1H,3H)-dione]	6.00 to 7.00	2.1 to 4 (≈ 4.25 to 8.09 µM)	2.1 to 4 (≈ 4.25 to 8.09 µM)	2.1 to 4 (≈ 4.25 to 8.09 µM)	7.00 to 8.00
COc1ccc(F)cc1[C@H](Cn1c(=O)n([C@@H]2CCN(C)C2=O)c(=O)c2c(C)c(-n3nccn3)sc21)OCCC(=O)O [Compound I-175, 3-((R)-1-(5-fluoro-2-methoxyphenyl)-2-(5-methyl-3-((R)-1-methyl-2-oxopyrrolidin-3-yl)-2,4-dioxo-6-(2H-1,2,3-triazol-2-yl)-3,4-dihydro-thieno[2,3-d]pyrimidin-1(2H)-yl)ethoxy)propanoic acid]	7.00 to 8.00	2.1 to 4 (≈ 3.58 to 6.82 µM)	2.1 to 4 (≈ 3.58 to 6.82 µM)	2.1 to 4 (≈ 3.58 to 6.82 µM)	8.70 to 9.15
COc1ccc(F)cc1[C@H](Cn1c(=O)n([C@@]2(C)CNC(=O)C2)c(=O)c2c(C)c(-n3nccn3)sc21)OCCO [Compound I-118, 1-((R)-2-(5-fluoro-2-methoxyphenyl)-2-(2-hydroxy-ethoxy)ethyl)-5-methyl-3-((R)-3-methyl-5-oxopyrrolidin-3-yl)-6-(2H-1,2,3-triazol-2-yl)thieno[2,3-d]pyrimidine-2,4(1H,3H)-dione]	7.00 to 8.00	2.1 to 4 (≈ 3.76 to 7.16 µM)	2.1 to 4 (≈ 3.76 to 7.16 µM)	2.1 to 4 (≈ 3.76 to 7.16 µM)	8.00 to 8.70
COc1ccc(F)cc1[C@H](COc1nc2sc(-n3nccn3)c(C)c2c(=O)n1[C@H]1CNC(=O)C1)OCCO [Compound I-102, 2-((R)-2-(5-fluoro-2-methoxyphenyl)-2-(2-hydroxy-ethoxy)ethoxy)-5-methyl-3-((R)-5-oxopyrrolidin-3-yl)-6-(2H-1,2,3-triazol-2-yl)thieno[2,3-d]pyrimidin-4(3H)-one]	< 6.00	2.1 to 4 (≈ 3.86 to 7.35 µM)	2.1 to 4 (≈ 3.86 to 7.35 µM)	2.1 to 4 (≈ 3.86 to 7.35 µM)	7.00 to 8.00
COCCO[C@@H](Cn1c(=O)n([C@@]2(C)CC(=O)N(C)C2)c(=O)c2c(C)c(-n3nccn3)sc21)c1cc(F)ccc1OC [Compound I-122, 3-((S)-1,3-dimethyl-5-oxopyrrolidin-3-yl)-1-((R)-2-(5-fluoro-2-methoxyphenyl)-2-(2-methoxyethoxy)ethyl)-5-methyl-6-(2H-1,2,3-triazol-2-yl)thieno[2,3-d]pyrimidine-2.4(1H, 3H)-dione]	7.00 to 8.00	2.1 to 4 (≈ 3.58 to 6.82 µM)	2.1 to 4 (≈ 3.58 to 6.82 µM)	2.1 to 4 (≈ 3.58 to 6.82 µM)	8.00 to 8.70
COCCO[C@@H](Cn1c(=O)n([C@@H]2CCN(C)C2=O)c(=O)c2c(C)c(-n3nccn3)sc21)c1cc(F)ccc1O [Compound I-158, 1-((R)-2-(5-fluoro-2-hydroxyphenyl)-2-(2-methoxyethoxy)ethyl)-5-methyl-3-((R)-1-methyl-2-oxopyrrolidin-3-yl)-6-(2H-1,2,3-triazol-2-yl)thieno[2,3-d]pyrimidine-2,4(1H,3H)-dione]	6.00 to 7.00	2.1 to 4 (≈ 3.76 to 7.16 µM)	2.1 to 4 (≈ 3.76 to 7.16 µM)	2.1 to 4 (≈ 3.76 to 7.16 µM)	8.00 to 8.70
COCCO[C@@H](Cn1c(=O)n([C@@]2(C)CCCN(C)C2=O)c(=O)c2c(C)c(-n3nccn3)sc21)c1cc(F)ccc1OC [Compound I-130, 3-((S)-1,3-dimethyl-2-oxopiperidin-3-yl)-1-((R)-2-(5-fluoro-2-methoxyphenyl)-2-(2-methoxyethoxy)ethyl)-5-methyl-6-(2H-1,2,3-triazol-2-yl)thieno[2,3-d]pyrimidine-2,4(1H,3H)-dione]	6.00 to 7.00	2.1 to 4 (≈ 3.5 to 6.66 µM)	2.1 to 4 (≈ 3.5 to 6.66 µM)	2.1 to 4 (≈ 3.5 to 6.66 µM)	8.00 to 8.70
COCCO[C@@H](Cn1c(=O)n([C@@]2(C)CCC(=O)NC2)c(=O)c2c(C)c(-n3nccn3)sc21)c1cc(F)ccc1OC [Compound I-134, 1-((R)-2-(5-fluoro-2-methoxyphenyl)-2-(2-methoxy-ethoxy)ethyl)-5-methyl-3-((S)-3-methyl-6-oxopiperidin-3-yl)-6-(2H-1,2,3-triazol-2-yl)thieno[2,3-d]pyrimidine-2,4(1H,3H)-dione]	6.00 to 7.00	2.1 to 4 (≈ 3.58 to 6.82 µM)	2.1 to 4 (≈ 3.58 to 6.82 µM)	2.1 to 4 (≈ 3.58 to 6.82 µM)	8.00 to 8.70
COCCO[C@@H](Cn1c(=O)n([C@]2(C)CNC(=O)C2)c(=O)c2c(C)c(-n3nccn3)sc21)c1cc(F)ccc1OC [Compound I-115, 1-((R)-2-(5-fluoro-2-methoxyphenyl)-2-(2-methoxy-ethoxy)ethyl)-5-methyl-3-((S)-3-methyl-5-oxopyrrolidin-3-yl)-6-(2H-1,2,3-triazol-2-yl)thieno[2,3-d]pyrimidine-24(1H,3H)-dione]	7.00 to 8.00	2.1 to 4 (≈ 3.67 to 6.99 µM)	2.1 to 4 (≈ 3.67 to 6.99 µM)	2.1 to 4 (≈ 3.67 to 6.99 µM)	8.70 to 9.15
